Peptide text beside a SMILES is read from it.
Legend:
[1] = of those who develop ADAs; ref LEVY et al., 1988; Grauer et al., 1995; cited from earlier work
Excerpt: In this case study, we describe an exercise to assess the immunogenicity risk of generic peptide impurities that were identified in salmon calcitonin (SCT). SCT is a peptide drug currently under development for the generic market by several manufacturers. Salmon calcitonin is a 32-amino acid peptide drug approved in the United States for the treatment of postmenopausal osteoporosis, Paget’s disease, and hypercalcemia. Salmon calcitonin shares only 50% amino acid sequence homology with human calcitonin (Figure 1), and despite its therapeutic benefits, in clinical trials, 40%–70% of patients tre ...

human donor PBMCs = test: In vitro immunogenicity protocol (IVIP) naïve T-cell assay, IFNγ FluoroSpot; format: cell-based; conditions: individual full-length peptides at 20 μg/mL, 14 days, then 48 h IFNγ FluoroSpot; 16 donors; positive: SFC > 50 per 10^6, SI ≥ 2, p < 0.05 vs medium
Experimental: To improve the sensitivity of the T-cell assays, fresh (not frozen) blood samples were obtained from human blood donors for the T-cell assays (internal observations). Specifically, PBMCs were isolated from leukocyte reduction filters obtained from the Rhode Island Blood Center (RIBC) in Providence, RI. To confirm the sufficient breadth of HLA coverage in the donor cohort, high-resolution (4-digit) class II HLA haplotyping of donors was performed at the Transplant Immunology Laboratory at Hartford Hospital in Hartford, CT, using the sequence-specific oligonucleotide method (SSP-PCR). […] supertype alleles were expressed by the donor PBMCs used in the assays reported here (HLA DRB1*0301, *0401, *0701, *1101, *1301, and *1501). The HLA identified for the cohort of subjects used in this study is representative of 81.81% of the HLA alleles expressed by the global population. Forty percent of the donors were female and 60% of the donors were male, and their ages ranged from 17 to 83 years. Donor cohort demographic information and HLA types for each donor are provided in Supplementary Figure S1. To measure the naïve T-cell response to salmon calcitonin and impurity peptides, cells were plated at a density of 2.5 × 10^5 cells per well in 96-well U-bottom cell plates in RPMI 1640 cell culture medium supplemented with IL-2 (10 ng/mL) and IL-7 (20 ng/mL) (Gibco). The cells were incubated with […]®, or a synthetic salmon calcitonin peptide, or individual peptide impurities, at a concentration of 20 μg/mL for 14 days at 37°C/5% CO2, with medium exchanges that include cytokine support (IL-2 and IL-7) on days 4, 7, and 11. A concentration of 20 μg/mL (5.8 μM) was the dose selected for the SCT API and the four selected impurities, following a dose-ranging study performed with […]® to determine the maximum dose at which a T-cell response could be observed with no observed toxicity to the cells. The dose-ranging study was performed following the same protocol as described above. The following control antigens were used in the T-cell assays for each of the PBMC samples: positive controls, keyhole limpet hemocyanin (KLH; Thermo Fisher), and the antigenic peptide pool CEFT (ImmunoSpot). In addition, human serum albumin (HSA; Sigma-Aldrich) was used as a negative control antigen, and phytohemagglutinin (PHA; Thermo Fisher), a T-cell mitogen, was used to confirm T-cell functionality. […] Responses were considered positive if (1) the number of spots was at least twice the background (stimulation index [SI] ≥ 2); (2) there were greater than 50 spot-forming cells (SFCs) per 1.0 × 10^6 PBMCs; and (3) responses were statistically different from the media (Student's t-test). Each of the test articles (SCT API, RLD, or impurity peptide) and each of the positive and negative controls were evaluated in nine replicate wells containing donor PBMCs. Following the 14-day incubation, cells in the nine replicate wells were collected, pooled by the treatment condition, and re-plated in triplicate on a precoated anti-human IFNγ FluoroSpot plate (Mabtech) at a concentration of 1.0 × 10^5 cells per well in the presence of an appropriate test article or control reagent in supplemented RPMI 1640 culture medium. The FluoroSpot plates were incubated for 48 h at 37°C/5% CO2. After 48 h, FluoroSpot plates were developed according to the manufacturer's directions. Spots were counted on an iSpot Spectrum FluoroSpot reading system (AID, Strassberg, Germany) using software 7.0, build 14790. Fluorophore-specific spot parameters were defined using the spot size, spot intensity, and spot gradient. A spot separation algorithm was applied for optimal spot detection. Analysis and counting of spots were performed by unbiased experts at ZellNet Consulting, Inc. (Fort Lee, NJ).

[2] = greater than human calcitonin; ref Epand et al., 1983; Lee et al., 2011; Andreassen et al., 2014; cited from earlier work
Excerpt: Despite the risk of immunogenicity, SCT is preferred for therapeutic use over human calcitonin due to its 50-fold greater potency in vivo. Increased potency is attributed to the ability of the peptide to adopt an α-helical structure and bind to the human calcitonin receptor with a greater, and nearly irreversible, affinity relative to the human homolog ([Epand et al., 1983]; [Lee et al., 2011]; [Andreassen et al., 2014]).

HLA DRB1*0101 = molecular target: T1, HLA DRB1*0101 (Homo sapiens, UniProt P01903+P01911, A100R/D57E/F55L/F60I/F76Y/I96L/L162R/M171V/P40L/Q125E/R42F/V115G/Y59C); test: Class II HLA competition binding assay; conditions: short assay peptides (Cys7 replaced with Ser); competition with biotinylated allele-specific peptide, soluble HLA DR, overnight, time-resolved fluorescence, triplicate, seven concentrations; unit inferred
T1 construct: incubated overnight to equilibrium with a soluble HLA DR molecule; purchased Benaroya Research Institute, Seattle, Washington
Experimental: (§1) The class II HLA binding assays performed for these studies measure the binding affinity of a target peptide to HLA DRB1*0101, *0301, *0401, *0701, *0901, *1101, *1301, and *1501 in a standardized competition assay. This assay was originally described by [Steere et al. (2006)] and adapted by EpiVax. Previous publications have described the assay in detail ([McMurry et al., 2007]; [Ardito et al., 2011]). Briefly, unlabeled test peptides are incubated overnight to equilibrium with a soluble HLA DR molecule (Benaroya Research Institute, Seattle, Washington) and a biotinylated, allele-specific competitor peptide. The binding reaction is then neutralized, and peptide–HLA complexes are transferred to a 96-well plate coated with the pan-HLA DR antibody, clone L243 (BioLegend), and incubated overnight. The following day, Europium-labeled streptavidin (PerkinElmer, Waltham, MA) is added to identify the peptide–HLA complexes. An indirect measure of binding is determined by time-resolved fluorescence. Each peptide–HLA binding reaction is evaluated in triplicate over a range of seven concentrations. The percent inhibition values at seven distinct concentrations are used to calculate the IC50 value, defined as the concentration at which the test peptide inhibits 50% of the labeled competitor peptide.
(§2) Peptides that bind to the HLA at an IC50 value of 100 nM or less are considered very high-affinity binders. Peptides that bind at IC50 values ranging from 100 nM to 1,000 nM are considered high-affinity binders. Peptides that bind at IC50 values ranging from 1,000 nM to 10,000 nM are considered moderate-affinity binders. Peptides that bind at IC50 values ranging from 10,000 nM to 100,000 nM are considered low-affinity binders, and those with IC50 values ranging from 100,000 nM to 1,000,000 nM are considered negligible-affinity binders. […] We note that these concentrations are specific for the in vitro HLA-binding assay and are used to compare the relative binding affinities of the impurity sequences to the API and independent from the peptide concentrations described for the in vitro T-cell assays described below.

HLA DRB1*1101 = molecular target: T2, HLA DRB1*1101 (Homo sapiens, UniProt P01903+P01911, A100R/A169T/A87E/I96F/K41T/L162R/M171V/P40S/Q125H/Q178H/Q39Y/Q99D/R42S/S66Y/T262R/V115G/W38E); test: Class II HLA competition binding assay; conditions: short assay peptides (Cys7 replaced with Ser), competition with biotinylated allele-specific peptide, soluble HLA DR, overnight, time-resolved fluorescence, triplicate, seven concentrations; for IC50: unit inferred
T2 construct: incubated overnight to equilibrium with a soluble HLA DR molecule; purchased Benaroya Research Institute, Seattle, Washington
Experimental: as §1, §2

HLA DRB1*0901 = HLA DRB1*0901 (Homo sapiens, UniProt P01903+P01911, A100R/A103E/D57H/D86V/F55Y/F60I/F76Y/I96F/K127E/L162R/M171V/P40D/Q125H/Q99R/R33Q/R42F/S133A/S66N/T210M/V115G/W38K/Y107V/Y59G/Y89S); test: Class II HLA competition binding assay; conditions: short assay peptides (Cys7 replaced with Ser); competition with biotinylated allele-specific peptide, soluble HLA DR, overnight, time-resolved fluorescence, triplicate, seven concentrations
Experimental: as §1, §2

HLA DRB1*1501 = molecular target: T3, HLA DRB1*1501 (Homo sapiens, UniProt P01903+P01911); test: Class II HLA competition binding assay; conditions: short assay peptides (Cys7 replaced with Ser); competition with biotinylated allele-specific peptide, soluble HLA DR, overnight, time-resolved fluorescence, triplicate, seven concentrations; unit inferred
T3 construct: incubated overnight to equilibrium with a soluble HLA DR molecule; purchased Benaroya Research Institute, Seattle, Washington
Experimental: as §1, §2

HLA DRB1*0701 = HLA DRB1*0701 (Homo sapiens, UniProt P01903+P01911, A100R/A102G/A103Q/D57E/D86V/E43K/F76Y/K127E/L162R/M171V/P40G/Q125H/Q99D/R33Q/R42Y/R54Q/S133A/S66F/T210M/V115G/Y107V/Y59L/Y89S); test: Class II HLA competition binding assay; conditions: short assay peptides (Cys7 replaced with Ser); competition with biotinylated allele-specific peptide, soluble HLA DR, overnight, time-resolved fluorescence, triplicate, seven concentrations
Experimental: as §1, §2

HLA DRB1*1301 = molecular target: T4, HLA DRB1*1301 (Homo sapiens, UniProt P01903+P01911, A100E/A169T/K41T/L162R/M171V/P40S/Q125H/Q178H/Q39Y/Q99D/R42S/S66N/T262R/W38E/Y61H); test: Class II HLA competition binding assay; conditions: short assay peptides (Cys7 replaced with Ser), competition with biotinylated allele-specific peptide, soluble HLA DR, overnight, time-resolved fluorescence, triplicate, seven concentrations; for IC50: unit inferred
T4 construct: incubated overnight to equilibrium with a soluble HLA DR molecule; purchased Benaroya Research Institute, Seattle, Washington
Experimental: as §1, §2

HLA DRB1*0401 = molecular target: T5, HLA DRB1*0401 (Homo sapiens, UniProt P01903+P01911, A100K/A169T/F76Y/I96L/K127E/L162R/M171V/N62H/P40V/Q125Y/R42H/S133A/S149N/S66Y/V115G/V209L/W38E); test: Class II HLA competition binding assay; conditions: short assay peptides (Cys7 replaced with Ser); competition with biotinylated allele-specific peptide, soluble HLA DR, overnight, time-resolved fluorescence, triplicate, seven concentrations
T5 construct: incubated overnight to equilibrium with a soluble HLA DR molecule; purchased Benaroya Research Institute, Seattle, Washington
Experimental: as §1, §2

HLA DRB1*0301 = molecular target: T6, HLA DRB1*0301 (Homo sapiens, UniProt P01903+P01911, A100K/A102G/A103R/A169T/F55Y/I96L/K41T/L162R/M171V/P40S/Q125H/Q178H/Q39Y/R42S/S66N/T106N/T262R/W38E/Y61H); test: Class II HLA competition binding assay; conditions: short assay peptides (Cys7 replaced with Ser), competition with biotinylated allele-specific peptide, soluble HLA DR, overnight, time-resolved fluorescence, triplicate, seven concentrations; for IC50: unit inferred
T6 construct: incubated overnight to equilibrium with a soluble HLA DR molecule; purchased Benaroya Research Institute, Seattle, Washington
Experimental: as §1, §2

IC50 (HLA DRB1*0101) [µM] | IC50 (HLA DRB1*1101) [µM] | IC50 (HLA DRB1*0901) [µM] | IC50 (HLA DRB1*1501) [µM] | IC50 (HLA DRB1*0701) [µM] | IC50 (HLA DRB1*1301) [µM] | IC50 (HLA DRB1*0401) [µM] | IC50 (HLA DRB1*0301) [µM] | IC50, HLA DRB1*1101 (HLA DRB1*1101; unit not given) | IC50, HLA DRB1*0901 (HLA DRB1*0901) | IC50, HLA DRB1*0701 (HLA DRB1*0701) | IC50, HLA DRB1*1301 (HLA DRB1*1301; unit not given) | IC50, HLA DRB1*0401 (HLA DRB1*0401) | IC50, HLA DRB1*0301 (HLA DRB1*0301; unit not given) | Compound | patients with ADAs who develop neutralizing anti-SCT antibodies (NADAs) [1] | Percentage of Responding Donors (human donor PBMCs) [%] | Responding Donors (human donor PBMCs) | potency in vivo relative to human calcitonin [2] [fold]
– | – | – | – | – | – | – | – | – | – | – | – | – | – | CSNLSTCVLGKLSQELHKLQTYPRTNTGSGTP (disulfide) [SCT API, salmon calcitonin, 32-amino acid peptide drug, disulfide Cys1-Cys7, C-terminus amidated] | more than 60% | 44 | 7 | 50
3.35 | 161 | > 1000 | 2.29 | > 1000 | 8.72 | > 1000 | 66.4 | – | – | – | – | – | – | CC(C)C[C@H](NC(=O)[C@H](CCC(=O)O)NC(=O)[C@H](CCC(N)=O)NC(=O)[C@@H](N)CO)C(=O)N[C@@H](Cc1c[nH]cn1)C(=O)N[C@@H](CCCCN)C(=O)N[C@@H](CC(C)C)C(=O)N[C@@H](CCC(N)=O)C(=O)N[C@H](C(=O)N[C@@H](Cc1ccc(O)cc1)C(=O)N1CCC[C@H]1C(=O)N[C@@H](CCCNC(=N)N)C(=O)N[C@H](C(=O)N[C@@H](CC(N)=O)C(=O)N[C@H](C(=O)O)[C@@H](C)O)[C@@H](C)O)[C@@H](C)O [API SCT(13-27)] (H-SQELHKLQTYPRTNT-OH) | – | – | – | –
12.3 | > 1000 | > 1000 | 12.8 | > 1000 | > 1000 | > 1000 | > 1000 | loss of binding | non-binder | non-binder | non-binder | non-binder | non-binder | CC(=O)NCCCC[C@H](NC(=O)CNC(=O)[C@H](CC(C)C)NC(=O)[C@@H](NC(=O)[C@H](CO)NC(=O)[C@@H](NC(=O)[C@@H](N)CO)[C@@H](C)O)C(C)C)C(=O)N[C@@H](CC(C)C)C(=O)N[C@@H](CO)C(=O)N[C@@H](CCC(N)=O)C(=O)N[C@@H](CCC(=O)O)C(=O)N[C@@H](CC(C)C)C(=O)N[C@@H](Cc1c[nH]cn1)C(=O)N[C@@H](CCCCN)C(=O)N[C@@H](CC(C)C)C(=O)O [LYS-AC11_SCT(5-19)] (H-STSVLGK(Ac)LSQELHKL-OH) | – | – | – | –
